According to patent publication US4465631A, “5-Substituted-3-isoxazolecarboxylic acid derivatives” (Ajinomoto Company, Incorporated, priority 1982, dated 1984):
In brackets after ≈: the same amount, converted by molar mass. Counter-ions that a name gives are not always drawn. Like-named read-outs stand apart in the source and are kept apart here.

Assays:
Experiment in all cases: Antibacterial activity (MIC)
Assay type in all cases: cell-based
Serratia marcescens = system: Serratia marcescens
Excerpt: (§1) Regarding the products produced in the above mentioned Examples antibacterial activities against some microorganisms were obtained.

Pseudomonas aeruginosa = system: Pseudomonas aeruginosa
Excerpt: as §1

[1] = system: Achromobacter xylosoxidans
Excerpt: as §1

Alcaligenes faecalis = system: Alcaligenes faecalis
Excerpt: as §1

Escherichia coli = system: Escherichia coli
Excerpt: as §1

Staphylococcus aureus = system: Staphylococcus aureus
Excerpt: as §1

Klebsiella pneumoniae = system: Klebsiella pneumoniae
Excerpt: as §1

Proteus mirabilis = system: Proteus mirabilis
Excerpt: as §1

Pseudomonas maltophilia = settings: Stenotrophomonas maltophilia
Excerpt: as §1

Pseudomonas cepacia = settings: Burkholderia cepacia
Excerpt: as §1

Bacteroides fragilis = system: Bacteroides fragilis
Excerpt: as §1

MIC (Serratia marcescens) [µg/mL] | MIC (Pseudomonas aeruginosa) [µg/mL] | MIC [1] [µg/mL] | MIC (Alcaligenes faecalis) [µg/mL] | MIC (Staphylococcus aureus) [µg/mL] | MIC (Klebsiella pneumoniae) [µg/mL] | MIC (Proteus mirabilis) [µg/mL] | MIC (Pseudomonas maltophilia) [µg/mL] | MIC (Pseudomonas cepacia) [µg/mL] | MIC (Bacteroides fragilis) [µg/mL] | MIC (Escherichia coli; read-out: MIC) [µg/mL] | Structure (SMILES) | MIC (Escherichia coli) [µg/mL]
12.5 (≈ 23.4 µM) | 3.13 (≈ 5.85 µM) | 1.56 (≈ 2.92 µM) | 6.25 (≈ 11.7 µM) | ≤ 0.1 | 6.25 (≈ 11.7 µM) | 0.78 (≈ 1.46 µM) | 6.25 (≈ 11.7 µM) | 3.13 (≈ 5.85 µM) | 6.25 (≈ 11.7 µM) | 12.5 (≈ 23.4 µM) | Cc1ccc(-c2cc(C(=O)N[C@@H](C(=O)N[C@@H]3C(=O)N4[C@@H]3SC(C)(C)[C@@H]4C(=O)O)c3ccccc3)no2)cc1 [Example 1, α-[5-(4-methylphenyl)-3-isoxazolecarboxamido]-benzylpenicillin] | 
12.5 | 6.25 | 3.13 | 6.25 | 0.2 | 12.5 | 0.39 | 12.5 | 3.13 | 12.5 | 12.5 | COc1cccc(-c2cc(C(=O)N[C@@H](C(=O)N[C@@H]3C(=O)N4[C@@H]3SC(C)(C)[C@@H]4C(=O)O)c3ccccc3)no2)c1 [Example 3, D-α-(5-m-anisylisoxazole-3-carboxamido)-benzylpenicillin sodium salt] | 
25 | 6.25 | 3.13 | 12.5 | ≤ 0.1 | 12.5 | 0.78 | 12.5 | 6.25 | 12.5 | 12.5 | CC1(C)S[C@@H]2[C@H](NC(=O)[C@H](NC(=O)c3cc(-c4cccs4)on3)c3ccccc3)C(=O)N2[C@H]1C(=O)O [Example 8, D-α-[5-(2-thienyl)-isoxazole-3-carboxamido]-benzyl-penicillin sodium salt] | 

Structure (SMILES) | MIC (Serratia marcescens) [µg/mL] | MIC (Pseudomonas aeruginosa) [µg/mL] | MIC [1] [µg/mL] | MIC (Alcaligenes faecalis) [µg/mL] | MIC (Staphylococcus aureus) [µg/mL] | MIC (Klebsiella pneumoniae) [µg/mL] | MIC (Proteus mirabilis) [µg/mL] | MIC (Pseudomonas maltophilia) [µg/mL] | MIC (Pseudomonas cepacia) [µg/mL] | MIC (Bacteroides fragilis) [µg/mL] | MIC (Escherichia coli; read-out: MIC) [µg/mL] | MIC (Escherichia coli) [µg/mL]
CC1(C)S[C@@H]2[C@H](NC(=O)C(C(=O)O)c3ccccc3)C(=O)N2[C@H]1C(=O)O (some centres unmarked) [Carbenicillin, reference compound] | > 100 | 25 (≈ 66.1 µM) | > 100 | > 100 | 0.78 (≈ 2.06 µM) | > 100 | 0.78 (≈ 2.06 µM) | > 100 | > 100 | > 100 |  | 12.5 (≈ 33 µM)
